Data published in patent US20200316023A1, “Method Of Producing Bacterially Derived Indole-3-Propionic Acid And Compositions Comprising Same” (The Procter & Gamble Company, priority 2019, published 2020).

Test: pharmacokinetic studies of IPA dose versus serum IPA levels
Assay type: in vivo
Settings: dose of from about 5 to about 10 mg of IPA
Procedure: In some aspects, the composition can comprise from about 5 to about 10 mg of IPA per dose of the composition.

O=C(O)CCc1c[nH]c2ccccc12 [IPA, Indole-3-propionic acid]
IPA levels in serum relative to endogenous baseline: increase IPA levels in serum beyond endogenous baseline values
